Assays:
[1] = as reported from the API manufacturer; cited from earlier work
[2] = Impact of dry heat sterilization on particle size of bulk roflumilast API; assay type: physicochemical; settings: bulk API dried at 137° C. for 20 hours
Description: The impact of dry heat sterilization on roflumilast was assessed. Bulk API of roflumilast was dried at 137° C. for 20 hours. The particle size of the roflumilast was measured. FIG. 14 provides a particle size distribution plot for the bulk API after dry heat sterilization.

For `O=C(Nc1c(Cl)cncc1Cl)c1ccc(OC(F)F)c(OCC2CC2)c1` [Roflumilast, N-(3,5-dichloropyrid-4-yl)-3-cyclopropylmethoxy-4-difluoromethoxybenzamide], the “D90 of the API” value [1] is given as “approximately 10 μm” and the “impact of dry heat sterilization on particle size distribution” value [2] is given as “does not significantly impact the particle size distribution”.

Reference: patent US20250255809A1, “OPHTHALMIC PHARMACEUTICAL COMPOSITIONS OF ROFLUMILAST” (Iolyx Therapeutics, Inc., priority 2021, published 2025)
